For 14 substances, normalised inhibition (eCFP-eYFP dual reporter) results are on record in the OligoGym collection.

Oligonucleotides are given in HELM: sugar(base)linkage, 5' to 3'; d 2'-deoxyribose, r ribose, m 2'-O-methylribose, p phosphate. ss, as = sense and antisense strand

For this series, the target named is CDC34. Description: reporter assay of Huesken 2005. Conditions: siRNA. Background: In a reporter assay the amount or activity of a reporter protein is the signal.
Note: test concentration or dose not given here.

“RNA1{r(C)p.r(C)p.r(U)p.r(C)p.r(U)p.r(U)p.r(C)p.r(U)p.r(A)p.r(C)p.r(G)p.r(A)p.r(C)p.r(G)p.r(A)p.r(C)p.r(U)p.r(A)p.r(C)p.d(T)p.d(T)}|RNA2{r(G)p.r(U)p.r(A)p.r(G)p.r(U)p.r(C)p.r(G)p.r(U)p.r(C)p.r(G)p.r(U)p.r(A)p.r(G)p.r(A)p.r(A)p.r(G)p.r(A)p.r(G)p.r(G)p.d(T)p.d(C)}$$$RNA1{StrandType:ss}|RNA2{StrandType:as}$” showed a normalised inhibition (eCFP-eYFP dual reporter) of 82.7%. As for “RNA1{r(C)p.r(A)p.r(A)p.r(G)p.r(G)p.r(C)p.r(G)p.r(C)p.r(C)p.r(G)p.r(G)p.r(C)p.r(G)p.r(C)p.r(C)p.r(C)p.r(G)p.r(A)p.r(C)p.d(T)p.d(T)}|RNA2{r(G)p.r(U)p.r(C)p.r(G)p.r(G)p.r(G)p.r(C)p.r(G)p.r(C)p.r(C)p.r(G)p.r(G)p.r(C)p.r(G)p.r(C)p.r(C)p.r(U)p.r(U)p.r(G)p.d(G)p.d(T)}$$$RNA1{StrandType:ss}|RNA2{StrandType:as}$”, the figure is 26.8%; as for “RNA1{r(A)p.r(C)p.r(U)p.r(A)p.r(C)p.r(G)p.r(A)p.r(G)p.r(G)p.r(G)p.r(C)p.r(G)p.r(G)p.r(C)p.r(U)p.r(A)p.r(C)p.r(U)p.r(U)p.d(T)p.d(T)}|RNA2{r(A)p.r(A)p.r(G)p.r(U)p.r(A)p.r(G)p.r(C)p.r(C)p.r(G)p.r(C)p.r(C)p.r(C)p.r(U)p.r(C)p.r(G)p.r(U)p.r(A)p.r(G)p.r(U)p.d(A)p.d(G)}$$$RNA1{StrandType:ss}|RNA2{StrandType:as}$”, 73.7%. “RNA1{r(G)p.r(A)p.r(C)p.r(G)p.r(A)p.r(G)p.r(G)p.r(G)p.r(C)p.r(G)p.r(A)p.r(U)p.r(C)p.r(U)p.r(A)p.r(U)p.r(A)p.r(C)p.r(A)p.d(T)p.d(T)}|RNA2{r(U)p.r(G)p.r(U)p.r(A)p.r(U)p.r(A)p.r(G)p.r(A)p.r(U)p.r(C)p.r(G)p.r(C)p.r(C)p.r(C)p.r(U)p.r(C)p.r(G)p.r(U)p.r(C)p.d(C)p.d(A)}$$$RNA1{StrandType:ss}|RNA2{StrandType:as}$” gave a normalised inhibition (eCFP-eYFP dual reporter) of 64.3%. To “RNA1{r(C)p.r(C)p.r(U)p.r(G)p.r(A)p.r(G)p.r(U)p.r(G)p.r(U)p.r(G)p.r(A)p.r(U)p.r(C)p.r(U)p.r(C)p.r(C)p.r(C)p.r(U)p.r(C)p.d(T)p.d(T)}|RNA2{r(G)p.r(A)p.r(G)p.r(G)p.r(G)p.r(A)p.r(G)p.r(A)p.r(U)p.r(C)p.r(A)p.r(C)p.r(A)p.r(C)p.r(U)p.r(C)p.r(A)p.r(G)p.r(G)p.d(A)p.d(G)}$$$RNA1{StrandType:ss}|RNA2{StrandType:as}$” belongs 58.4%; to “RNA1{r(C)p.r(U)p.r(A)p.r(C)p.r(G)p.r(A)p.r(G)p.r(G)p.r(G)p.r(C)p.r(G)p.r(G)p.r(C)p.r(U)p.r(A)p.r(C)p.r(U)p.r(U)p.r(C)p.d(T)p.d(T)}|RNA2{r(G)p.r(A)p.r(A)p.r(G)p.r(U)p.r(A)p.r(G)p.r(C)p.r(C)p.r(G)p.r(C)p.r(C)p.r(C)p.r(U)p.r(C)p.r(G)p.r(U)p.r(A)p.r(G)p.d(T)p.d(A)}$$$RNA1{StrandType:ss}|RNA2{StrandType:as}$”, 59.8%; to “RNA1{r(C)p.r(C)p.r(C)p.r(A)p.r(A)p.r(C)p.r(A)p.r(C)p.r(C)p.r(U)p.r(U)p.r(C)p.r(U)p.r(C)p.r(G)p.r(C)p.r(C)p.r(C)p.r(G)p.d(T)p.d(T)}|RNA2{r(C)p.r(G)p.r(G)p.r(G)p.r(C)p.r(G)p.r(A)p.r(G)p.r(A)p.r(A)p.r(G)p.r(G)p.r(U)p.r(G)p.r(U)p.r(U)p.r(G)p.r(G)p.r(G)p.d(C)p.d(T)}$$$RNA1{StrandType:ss}|RNA2{StrandType:as}$”, 45.9%. For the substance “RNA1{r(C)p.r(U)p.r(C)p.r(A)p.r(G)p.r(A)p.r(C)p.r(C)p.r(U)p.r(C)p.r(U)p.r(U)p.r(C)p.r(U)p.r(A)p.r(C)p.r(G)p.r(A)p.r(C)p.d(T)p.d(T)}|RNA2{r(G)p.r(U)p.r(C)p.r(G)p.r(U)p.r(A)p.r(G)p.r(A)p.r(A)p.r(G)p.r(A)p.r(G)p.r(G)p.r(U)p.r(C)p.r(U)p.r(G)p.r(A)p.r(G)p.d(C)p.d(C)}$$$RNA1{StrandType:ss}|RNA2{StrandType:as}$”, the normalised inhibition (eCFP-eYFP dual reporter) turned out to be 37.2%. To “RNA1{r(C)p.r(A)p.r(G)p.r(G)p.r(U)p.r(C)p.r(C)p.r(U)p.r(G)p.r(G)p.r(G)p.r(G)p.r(A)p.r(C)p.r(C)p.r(A)p.r(A)p.r(G)p.r(G)p.d(T)p.d(T)}|RNA2{r(C)p.r(C)p.r(U)p.r(U)p.r(G)p.r(G)p.r(U)p.r(C)p.r(C)p.r(C)p.r(C)p.r(A)p.r(G)p.r(G)p.r(A)p.r(C)p.r(C)p.r(U)p.r(G)p.d(C)p.d(T)}$$$RNA1{StrandType:ss}|RNA2{StrandType:as}$” belongs 43%. “RNA1{r(C)p.r(C)p.r(U)p.r(C)p.r(C)p.r(U)p.r(G)p.r(A)p.r(A)p.r(C)p.r(G)p.r(A)p.r(G)p.r(C)p.r(C)p.r(C)p.r(A)p.r(A)p.r(C)p.d(T)p.d(T)}|RNA2{r(G)p.r(U)p.r(U)p.r(G)p.r(G)p.r(G)p.r(C)p.r(U)p.r(C)p.r(G)p.r(U)p.r(U)p.r(C)p.r(A)p.r(G)p.r(G)p.r(A)p.r(G)p.r(G)p.d(G)p.d(A)}$$$RNA1{StrandType:ss}|RNA2{StrandType:as}$” gave a normalised inhibition (eCFP-eYFP dual reporter) of 68.2%. To “RNA1{r(A)p.r(C)p.r(A)p.r(G)p.r(A)p.r(C)p.r(A)p.r(U)p.r(C)p.r(A)p.r(U)p.r(C)p.r(C)p.r(G)p.r(G)p.r(A)p.r(A)p.r(G)p.r(C)p.d(T)p.d(T)}|RNA2{r(G)p.r(C)p.r(U)p.r(U)p.r(C)p.r(C)p.r(G)p.r(G)p.r(A)p.r(U)p.r(G)p.r(A)p.r(U)p.r(G)p.r(U)p.r(C)p.r(U)p.r(G)p.r(U)p.d(G)p.d(T)}$$$RNA1{StrandType:ss}|RNA2{StrandType:as}$” belongs 34.9%; to “RNA1{r(C)p.r(U)p.r(A)p.r(C)p.r(G)p.r(A)p.r(C)p.r(G)p.r(A)p.r(C)p.r(U)p.r(A)p.r(C)p.r(U)p.r(A)p.r(C)p.r(G)p.r(G)p.r(G)p.d(T)p.d(T)}|RNA2{r(C)p.r(C)p.r(C)p.r(G)p.r(U)p.r(A)p.r(G)p.r(U)p.r(A)p.r(G)p.r(U)p.r(C)p.r(G)p.r(U)p.r(C)p.r(G)p.r(U)p.r(A)p.r(G)p.d(A)p.d(A)}$$$RNA1{StrandType:ss}|RNA2{StrandType:as}$”, 69%; to “RNA1{r(G)p.r(A)p.r(G)p.r(U)p.r(A)p.r(C)p.r(U)p.r(G)p.r(C)p.r(G)p.r(U)p.r(G)p.r(A)p.r(A)p.r(G)p.r(A)p.r(C)p.r(C)p.r(A)p.d(T)p.d(T)}|RNA2{r(U)p.r(G)p.r(G)p.r(U)p.r(C)p.r(U)p.r(U)p.r(C)p.r(A)p.r(C)p.r(G)p.r(C)p.r(A)p.r(G)p.r(U)p.r(A)p.r(C)p.r(U)p.r(C)p.d(G)p.d(G)}$$$RNA1{StrandType:ss}|RNA2{StrandType:as}$”, 73.7%. To “RNA1{r(G)p.r(A)p.r(U)p.r(C)p.r(U)p.r(A)p.r(U)p.r(A)p.r(C)p.r(A)p.r(A)p.r(C)p.r(U)p.r(G)p.r(G)p.r(G)p.r(A)p.r(G)p.r(G)p.d(T)p.d(T)}|RNA2{r(C)p.r(C)p.r(U)p.r(C)p.r(C)p.r(C)p.r(A)p.r(G)p.r(U)p.r(U)p.r(G)p.r(U)p.r(A)p.r(U)p.r(A)p.r(G)p.r(A)p.r(U)p.r(C)p.d(G)p.d(C)}$$$RNA1{StrandType:ss}|RNA2{StrandType:as}$” belongs 41.7%.
